Experiments:
[1] = test system: HCC1937; details: 72 h
In short: (§1)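 Seeding of breast cancer cell lines (20 µl suspension) was done into 384-well plates pre-loaded with compound at 5 concentrations, 10-fold apart, covering a compound-specific 10,000-fold range. The plates were incubated for 72 h, read for CellTox Green fluorescence (485/520 nm), and then read for CellTiter-Glo luminescence after 10 min at room temperature. Every plate was normalised to 0.1 % DMSO and a positive kill control. Curve fitting gave the EC50, censored at the top concentration.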

[2] = test system: MDA-MB-436; details: 72 h
In short: as §1

[3] = test system: CAL-148; assay: normalised viability (% of control), CellTiter-Blue; higher = more viable cells (about 100 = DMSO control); details: 3000 nM; incubation time: 72 h
Method: (§2)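 DSRT, CellTiter-Blue viability, 72 h incubation. Signal is normalised to DMSO and benzethonium chloride controls. Value is the normalised response at dose 8.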

[4] = test system: CAL-51; assay: as above; details: 3000 nM; incubation time: 72 h
Method: as §2

[5] = test system: CAL-85-1; assay: as above; details: 3000 nM; incubation time: 72 h
Method: as §2

[6] = test system: DU-4475; assay: as above; details: 3000 nM; incubation time: 72 h
Method: as §2

[7] = test system: HDQ-P1; assay: as above; details: 3000 nM; incubation time: 72 h
Method: as §2

[8] = test system: MDA-MB-453; assay: as above; details: 3000 nM; incubation time: 72 h
Method: as §2

[9] = test system: BT-474; assay: normalised viability (% of control), CellTiter-Blue; higher = more viable cells (about 100 = DMSO control); details: 100 nM; incubation time: 72 h
In short: (§3)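 Plates were quality-checked by Z'-factor and normalised to vehicle (100) and a positive kill control (0). The underlying assay incubated breast cancer cell lines for 72 h on 384-well plates with compound, then added 2.5 µl CellTiter-Blue for 2 h at 37 °C and read at 560/590 nm. The value is normalised viability at a single listed concentration of the series.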

[10] = test system: BT-549; assay: as above; details: 100 nM; incubation time: 72 h
In short: as §3

[11] = test system: CAL-51; assay: as above; details: 10 nM; incubation time: 72 h
In short: as §3

[12] = test system: CAL-85-1; assay: as above; details: 10 nM; incubation time: 72 h
In short: as §3

[13] = test system: DU-4475; assay: as above; details: 10 nM; incubation time: 72 h
In short: as §3

[14] = test system: HDQ-P1; assay: as above; details: 10 nM; incubation time: 72 h
In short: as §3

[15] = test system: Hs578T; assay: as above; details: 100 nM; incubation time: 72 h
In short: as §3

[16] = test system: MDA-MB-436; assay: as above; details: 100 nM; incubation time: 72 h
In short: as §3

[17] = test system: MFM-223; assay: as above; details: 100 nM; incubation time: 72 h
In short: as §3

[18] = test system: SK-BR-3; assay: as above; details: 100 nM; incubation time: 72 h
In short: as §3

[19] = test system: CAL-148; assay: normalised viability (% of control), CellTiter-Blue; higher = more viable cells (about 100 = DMSO control); details: 300 nM; incubation time: 72 h
Method: (§4)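 DSRT, CellTiter-Blue viability, 72 h incubation. Signal is normalised to DMSO and benzethonium chloride controls. Value is the normalised response at dose 6.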

[20] = test system: CAL-51; assay: as above; details: 300 nM; incubation time: 72 h
Method: as §4

[21] = test system: CAL-85-1; assay: as above; details: 300 nM; incubation time: 72 h
Method: as §4

[22] = test system: DU-4475; assay: as above; details: 300 nM; incubation time: 72 h
Method: as §4

[23] = test system: HDQ-P1; assay: as above; details: 300 nM; incubation time: 72 h
Method: as §4

[24] = test system: MDA-MB-453; assay: as above; details: 300 nM; incubation time: 72 h
Method: as §4

[25] = test system: CAL-148; assay: as above; details: 10000 nM; incubation time: 72 h
Method: (§5)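 DSRT, CellTiter-Blue viability, 72 h incubation. Signal is normalised to DMSO and benzethonium chloride controls. Value is the normalised response at dose 9.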

[26] = test system: CAL-51; assay: as above; details: 10000 nM; incubation time: 72 h
Method: as §5

[27] = test system: CAL-85-1; assay: as above; details: 10000 nM; incubation time: 72 h
Method: as §5

[28] = test system: DU-4475; assay: as above; details: 10000 nM; incubation time: 72 h
Method: as §5

[29] = test system: HDQ-P1; assay: as above; details: 10000 nM; incubation time: 72 h
Method: as §5

[30] = test system: MDA-MB-453; assay: as above; details: 10000 nM; incubation time: 72 h
Method: as §5

Compound | EC50, CellTiter-Glo [1] [nM] | EC50, CellTiter-Glo [2] [nM] | normalised viability [3] [%] | normalised viability [4] [%] | normalised viability [5] [%] | normalised viability [6] [%] | normalised viability [7] [%] | normalised viability [8] [%] | normalised viability [9] [%] | normalised viability [10] [%] | normalised viability [11] [%] | normalised viability [12] [%] | normalised viability [13] [%] | normalised viability [14] [%] | normalised viability [15] [%] | normalised viability [16] [%] | normalised viability [17] [%] | normalised viability [18] [%] | normalised viability [19] [%] | normalised viability [20] [%] | normalised viability [21] [%] | normalised viability [22] [%] | normalised viability [23] [%] | normalised viability [24] [%] | normalised viability [25] [%] | normalised viability [26] [%] | normalised viability [27] [%] | normalised viability [28] [%] | normalised viability [29] [%] | normalised viability [30] [%]
Nc1nc2[nH]cc(CCc3ccc(C(=O)N[C@@H](CCC(=O)O)C(=O)O)cc3)c2c(=O)[nH]1 [Pemetrexed] | 64.1 | 30.3 | 99.3 | 109 | 62.6 | 124 | 109 | 83 | 125 | 87.8 | 108 | 99.8 | 104 | 120 | 102 | 97.2 | 91.6 | 84 | 106 | 110 | 107 | 93.6 | 83.7 | 102 | 66.5 | 91 | 55.4 | 99.7 | 106 | 92.6
COc1cc2nccc(Oc3ccc(NC(=O)Nc4cc(C)on4)c(Cl)c3)c2cc1OC [Tivozanib] | > 10000 | – | 94 | 80 | 92.8 | 118 | 67.6 | 51.9 | 112 | 90.4 | 99 | 103 | 115 | 79 | 91.5 | 88.1 | 80.8 | 105 | 95.9 | 89.8 | 102 | 109 | 61.2 | 95.8 | 96.8 | 40.7 | 82.9 | 107 | 55.9 | 28.3
CC(=O)Nc1cccc(-n2c(=O)n(C3CC3)c(=O)c3c(Nc4ccc(I)cc4F)n(C)c(=O)c(C)c32)c1 [Trametinib] | 172 | 67 | – | – | – | – | – | – | – | – | – | – | – | – | – | – | – | – | – | – | – | – | – | – | – | – | – | – | – | –
CC1=C(/C=C/C(C)=C/C=C/C(C)=C/C(=O)O)C(C)(C)CCC1 [Tretinoin] | – | – | 80.1 | 90.8 | 88.5 | 99 | 121 | 94.1 | 122 | 107 | 100 | 99.2 | 100 | 125 | 91.5 | 99.5 | 86.2 | 87.1 | 74 | 96.2 | 96.6 | 91.1 | 94.9 | 91.5 | 78.3 | 98 | 90.6 | 94.3 | 122 | 96.9
C1CN1c1nc(N2CC2)nc(N2CC2)n1 [Triethylenemelamine] | – | – | 85.6 | 109 | 104 | 98.7 | 107 | 113 | 113 | 95.7 | 100 | 101 | 102 | 102 | 107 | 105 | 93.8 | 95.5 | 118 | 105 | 99 | 97.2 | 105 | 108 | 80 | 60.5 | 72.8 | 95.9 | 101 | 40.9
Oc1ncc(N(CCCl)CCCl)c(O)n1 [Uracil mustard] | – | – | 113 | 99.6 | 93.8 | 105 | 115 | 92.8 | 106 | 111 | 98.6 | 103 | 98.6 | 107 | 116 | 102 | 90.6 | 88.2 | 89.7 | 96.4 | 93.1 | 80.8 | 94.8 | 104 | 105 | 91.6 | 93.9 | 94.9 | 110 | 104
CCCS(=O)(=O)Nc1ccc(F)c(C(=O)c2c[nH]c3ncc(-c4ccc(Cl)cc4)cc23)c1F [Vemurafenib] | – | – | 89.1 | 107 | 75.7 | 4.66 | 83.1 | 87.3 | 111 | 98.2 | 97.1 | 98.6 | 107 | 87.6 | 110 | 81.6 | 87.5 | 96.9 | 90.3 | 96.5 | 87.4 | 55.1 | 74.4 | 88.7 | 94.1 | 103 | 78.3 | -0.32 | 68.6 | 75.5

From the supplement of paper PMC4862054
